Data from US9682940B2, “Indazole derivatives useful as CB-1 inverse agonists” (Janssen Pharmaceutica NV, priority 2015, dated 2017).

Legend:
[1] = molecular target: Human CB1R (Cannabanoid receptor 1) (Homo sapiens (Human), UniProt P21554); experiment: CB-1 in vitro cAMP (HTRF) assay in HEK-293 cells; type: cell-based; conditions: HEK-293 cells stably transfected with human CB1R, 250 nM Forskolin, mean where tested more than once, read-out: CB-1 (HEK_cAMP) EC50
From the text: (§1) CB1 and CB2 receptors are Gi-coupled GPCR. Activation of CB1 and CB2 receptors results in a decrease in cAMP production. An inverse agonist of the CB1 or CB2 receptor results in the opposite effect, an increase of cAMP production. The principle of this assay is based on HTRF® technology (Homogeneous Time-Resolved Fluorescence). The method is a competitive immunoassay between native cAMP produced by cells and the cAMP labeled with the fluorophore d2. The tracer binding is quantified by a Mab anti-cAMP labeled with Eu3+TBP-NHS Cryptate (supplied as part of the assay kit). The specific signal (i.e. energy transfer) is inversely proportional to the concentration of cAMP in the standard or sample.
(§2) Human CB1R (Cannabanoid receptor 1) was stably transfected in HEK-293 cells (DiscoveRx, cat: 93-0200C1). Human CB2R (Cannabanoid receptor 2) was stably transfected in HEK-293 cells (DiscoveRx, cat: 93-0201C1). Cell cultures were maintained in media: DMEM (Invitrogen Cat#12430-054) supplemented with 10% HI FBS (Invitrogen Cat#16140-071), 1% L-glutamine (Invitrogen Cat#25030-081), 0.2 mg/ml Hygromycin B (Invitrogen Cat#10687-010), 600 μg/mL G418 (Invitrogen Cat#10131-035), and 1× Penn/Strep (Invitrogen 15140-122). After cell expansion, aliquots were cryo-stored in media containing 5% DMSO (Pierce Cat#20684).
(§3) One day prior to experiments media was warmed to 37° C. and the cryo-stored cells were thawed in a 37° C. water bath. The cells were then added to media (10× volume) and the mixture was centrifugated at 1000 RPM for 5 min. The supernate was removed and the cells were re-suspended in media. A sample of the cell suspension was evaluated on a Cedex XS automated cell counter (Innovatis Systems) to determine viable cells/ml. Additional media was added to the cells to achieve a final cell density of 4E5 cells/mL. The cells were then plated into 384 well PDL white solid bottom plates (Greiner, Cat#781945) at 20 μL per well using a Multidrop (Thermo Scientific). Cells were removed from Row P (location of cAMP standards). Two columns of cells were plated into a clear bottom 384 well PDL coated plate (Greiner, Cat#781944) to view confluence the day of the assay. The cell plates were lidded and stored for 15 minutes in a hood, then transferred to an incubator (37° C., 5% CO2, 95% humidity) overnight.
(§4) DMSO was added to all wells of 384 well V bottom polystyrene plate (Greiner, Cat#781280) except to columns 1 and 13, rows O and P and wells M13-M23 and N13-N23. Test compounds (60 μL, 10 mM) were added to Column 1 and 13 (A1 through N1 and A13 through L13). Test compounds were serially diluted 1/3 by transferring and mixing 20 μl sample with 40 μL DMSO.
(§5) DMSO (40 μL) was added to wells of 384 well V bottom polystyrene plate: O2 through O11, M14 through M23, N14 through N23, and O14 through 023. AM630 (also known as [6-iodo-2-methyl-1-[2-(4-morpholinyl)ethyl]-1H-indol-3-yl](4-methoxyphenyl)-methanone, Cayman Chemical, Cat#10006974) (60 μL, 10 mM) was added to 01; and 1-(2,4-dichlorophenyl)-7-[(4-fluorophenyl)methylene]-4,5,6,7-tetrahydro-N-1-piperidinyl-1H-indazole-3-carboxamide (60 μL, 10 mM) was added to N13. The control was serially diluted 1/3 by transferring and mixing 20 μl sample with 40 μL DMSO. This process resulted 11 doses per control, 10 mM to […].
(§6) Cells plated the day prior to the assay in clear bottom plates were viewed on an inverse microscope to ensure confluency in the range of 60-75%. […]

[2] = molecular target: Human CB2R (Cannabanoid receptor 2) (Homo sapiens (Human), UniProt P34972); experiment: CB-2 in vitro cAMP (HTRF) assay in HEK-293 cells; type: cell-based; conditions: HEK-293 cells stably transfected with human CB2R, 250 nM Forskolin, mean where tested more than once, read-out: CB-2 (HEK_cAMP) EC50
Sequence of Human CB2R (Cannabanoid receptor 2) (P34972 whole entry): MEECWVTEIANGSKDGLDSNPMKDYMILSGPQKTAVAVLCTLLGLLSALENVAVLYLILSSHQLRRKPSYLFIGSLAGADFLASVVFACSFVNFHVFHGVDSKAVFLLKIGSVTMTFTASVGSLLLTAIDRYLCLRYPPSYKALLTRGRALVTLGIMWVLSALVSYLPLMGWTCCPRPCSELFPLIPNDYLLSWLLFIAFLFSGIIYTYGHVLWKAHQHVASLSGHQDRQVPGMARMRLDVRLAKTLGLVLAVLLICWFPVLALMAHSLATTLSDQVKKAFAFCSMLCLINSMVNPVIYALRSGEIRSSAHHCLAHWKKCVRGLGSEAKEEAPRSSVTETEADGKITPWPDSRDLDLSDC
From the text: as §1, §2, §3, §4, §5, §6

Sequence of Human CB1R (Cannabanoid receptor 1) (P21554 whole entry): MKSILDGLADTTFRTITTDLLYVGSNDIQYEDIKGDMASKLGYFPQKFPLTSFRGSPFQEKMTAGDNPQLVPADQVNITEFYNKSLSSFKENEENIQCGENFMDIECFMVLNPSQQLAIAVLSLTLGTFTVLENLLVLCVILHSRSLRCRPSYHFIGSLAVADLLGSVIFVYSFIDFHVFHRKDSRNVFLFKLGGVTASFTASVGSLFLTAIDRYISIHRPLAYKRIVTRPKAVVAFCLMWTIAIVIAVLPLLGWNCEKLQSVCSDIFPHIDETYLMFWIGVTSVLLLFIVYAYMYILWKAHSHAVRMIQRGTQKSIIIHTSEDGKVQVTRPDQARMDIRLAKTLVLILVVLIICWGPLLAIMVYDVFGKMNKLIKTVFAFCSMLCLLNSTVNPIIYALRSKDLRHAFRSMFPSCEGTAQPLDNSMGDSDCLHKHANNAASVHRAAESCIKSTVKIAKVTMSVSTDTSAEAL

| Compound | EC50 [1] | EC50 [2] |
| --- | --- | --- |
| O=C(O)c1ccc(S(=O)(=O)N2CCC(c3n[nH]c4ccc(C(c5ccc(Cl)cc5)c5ccc(Cl)cc5)cc34)C2)cc1 (stereo not shown) [Compound 269] | 590 nM | > 10000 nM |
| O=C(O)c1cccc(CN2CCC(c3nn(C4CC4)c4ccc(C(c5ccc(F)cc5)c5ccc(Cl)cc5)cc34)CC2)c1 (stereo not shown) [Compound 246] | 29 nM | > 10000 nM |
| COC(=O)c1cccc(S(=O)(=O)N2CCC(c3n[nH]c4ccc(C(c5ccc(Cl)cc5)c5ccc(Cl)cc5)cc34)CC2)c1 [Compound 60] | 65 nM | > 10000 nM |
| O=C(Oc1ccccc1)N1CCC(c2n[nH]c3ccc(C(c4ccc(Cl)cc4)c4ccc(Cl)cc4)cc23)CC1 [Compound 267] | 79 nM | > 2000 nM |
| O=S(=O)(N1CCC(c2n[nH]c3ccc(C(c4ccc(Cl)cc4)C4CCCC4)cc23)CC1)C(F)(F)F (stereo not shown) [Compound 279] | 785 nM | > 42000 nM |
| O=C(O)c1ccccc1S(=O)(=O)N1CCC(c2c3cc(C(c4ccc(Cl)cc4)c4ccc(Cl)cc4)ccc3nn2C2CC2)CC1 [Compound 123] | 5800 nM | > 10000 nM |
| NC(=O)c1ccc(CN2CCC(c3nn(C4CC4)c4ccc(C(c5ccc(Cl)cc5)c5ccc(Cl)cc5)cc34)CC2)cc1 [Compound 210] | 134 nM | > 10000 nM |
| NC(=O)c1cccc(N2CCC(c3n[nH]c4ccc(C(c5ccc(Cl)cc5)c5ccc(Cl)cc5)cc34)CC2)c1 [Compound 218] | 265 nM | > 10000 nM |
| CC(C)S(=O)(=O)N1CCC(Nc2n[nH]c3ccc(C(c4ccc(Cl)cc4)c4ccc(Cl)cc4)cc23)CC1 [Compound 78] | 179 nM | > 10000 nM |
| NC(=O)c1ccc(S(=O)(=O)N2CCC(Nc3n[nH]c4ccc(C(c5ccc(Cl)cc5)c5ccc(Cl)cc5)cc34)CC2)cc1 [Compound 120] | 50 nM | > 10000 nM |
| O=C(O)c1cccc(CN2CCC(c3n[nH]c4ccc(C(c5ccc(Cl)cc5)c5ccc(Cl)cc5)cc34)CC2)c1 [Compound 225] | 56 nM | 3300 nM |
| O=C(O)c1ccc(S(=O)(=O)N2CCC(c3n[nH]c4ccc(C(c5ccc(Cl)cc5)c5ccc(Cl)cc5)cc34)CC2)s1 [Compound 261] | 271 nM | 6820 nM |
| O=C(O)c1ccc(N2CCC(c3c4cc(C(c5ccc(Cl)cc5)c5ccc(Cl)cc5)ccc4nn3C3CC3)CC2)cc1 [Compound 193] | 474 nM | 9300 nM |
| O=C(O)c1cc(S(=O)(=O)N2CCC(c3c4cc(C(c5ccc(Cl)cc5)c5ccc(Cl)cc5)ccc4nn3C3CC3)CC2)ccc1F [Compound 162, 5-(4-(5-(bis(4-chlorophenyl)methyl)-2-cyclopropyl-2H-indazol-3-yl)piperidin-1-ylsulfonyl)-2-fluorobenzoic acid] | 4 nM | 5200 nM |
| O=C(O)c1cccc(N2CCC(c3nn(C4CC4)c4ccc(C(c5ccc(Cl)cc5)c5ccc(Cl)cc5)cc34)CC2)c1 [Compound 178] | 324 nM | > 10000 nM |
| O=C(O)c1cncc(CN2CCC(c3c4cc(C(c5ccc(Cl)cc5)c5ccc(Cl)cc5)ccc4nn3C3CC3)CC2)c1 [Compound 255, 5-((4-(5-(bis(4-chlorophenyl)methyl)-2-cyclopropyl-2H-indazol-3-yl)piperidin-1-yl)methyl)nicotinic acid] | 34 nM | > 10000 nM |
| CCNC(=O)N1CCC(c2n[nH]c3ccc(C(c4ccc(Cl)cc4)c4ccc(Cl)cc4)cc23)CC1 [Compound 264] | 199 nM | 4270 nM |
| NC(=O)c1ccc(C(=O)N2CCC(c3c4cc(C(c5ccc(Cl)cc5)c5ccc(Cl)cc5)ccc4nn3C3CC3)CC2)cc1 [Compound 114] | 283 nM | 9900 nM |

| Compound | EC50 [1] | EC50 [2] |
| --- | --- | --- |
| O=C(O)Cc1cccc(N2CCC(c3n[nH]c4ccc(C(c5ccc(Cl)cc5)c5ccc(Cl)cc5)cc34)CC2)c1 [Compound 214] | 3240 nM | > 10000 nM |
| O=S(=O)(c1ccccc1O)N1CCC(c2c3cc(C(c4ccc(Cl)cc4)c4ccc(Cl)cc4)ccc3nn2C2CC2)CC1 [Compound 149, 2-(4-(5-(bis(4-chlorophenyl)methyl)-2-cyclopropyl-2H-indazol-3-yl)piperidin-1-ylsulfonyl)phenol] | 7 nM | > 10000 nM |
| CCOC(=O)CS(=O)(=O)N1CCC(c2n[nH]c3ccc(C(c4ccc(Cl)cc4)c4ccc(Cl)cc4)cc23)CC1 [Compound 21] | 170 nM | > 10000 nM |
| O=C(O)CCC(=O)N1CCC(c2c3cc(C(c4ccc(Cl)cc4)c4ccc(Cl)cc4)ccc3nn2C2CC2)CC1 [Compound 135] | 166 nM | > 10000 nM |
| O=C(O)Cc1ccc(N2CCC(c3n[nH]c4ccc(C(c5ccc(Cl)cc5)c5ccc(Cl)cc5)cc34)CC2)cc1 [Compound 215] | 2960 nM | > 10000 nM |
| NC(=O)c1ccc(CN2CCC(c3n[nH]c4ccc(C(c5ccc(Cl)cc5)c5ccc(Cl)cc5)cc34)CC2)cc1 [Compound 222] | 163 nM | > 10000 nM |
| NC(=O)c1ccc(S(=O)(=O)N2CCC(c3n[nH]c4ccc(C(c5ccc(Cl)cc5)c5ccc(Cl)cc5)cc34)CC2)cc1 [Compound 28] | 134 nM | > 10000 nM |
| O=S(=O)(N1CCC(c2nn(-c3ccc(C(F)(F)F)cc3)c3ccc(C(c4ccc(Cl)cc4)c4ccc(Cl)cc4)cc23)CC1)C(F)(F)F [Compound 46] | 40 nM | > 10000 nM |
| O=C(O)c1ccc(N2CCC(c3nn(C4CC4)c4ccc(C(c5ccc(Cl)cc5)c5ccc(Cl)cc5)cc34)CC2)cc1 [Compound 198] | 150 nM | > 10000 nM |
| O=S(=O)(N1CCC(c2nn(C3CC3)c3ccc(C(c4ccc(Cl)cc4)c4ccc(Cl)cc4)cc23)CC1)C(F)(F)F [Compound 105] | 8 nM | > 10000 nM |
| NC(=O)CS(=O)(=O)N1CCC(c2nn(C3CC3)c3ccc(C(c4ccc(Cl)cc4)c4ccc(Cl)cc4)cc23)CC1 [Compound 115] | 1010 nM | > 10000 nM |
| O=S(=O)(N1CCN(c2n[nH]c3ccc(C(c4ccc(Cl)cc4)c4ccc(Cl)cc4)cc23)CC1)C(F)(F)F [Compound 26] | 5 nM | > 10000 nM |
| NC(=O)c1ccccc1C(=O)N1CCC(c2c3cc(C(c4ccc(Cl)cc4)c4ccc(Cl)cc4)ccc3nn2C2CC2)CC1 [Compound 124] | 236 nM | > 10000 nM |
| NC(=O)c1cccc(N2CCC(c3c4cc(C(c5ccc(Cl)cc5)c5ccc(Cl)cc5)ccc4nn3C3CC3)CC2)c1 [Compound 184, 3-(4-(5-(bis(4-chlorophenyl)methyl)-2-cyclopropyl-2H-indazol-3-yl)piperidin-1-yl)benzamide] | 26 nM | > 10000 nM |
| O=S(=O)(C(F)F)N1CCC(c2n[nH]c3ccc(C(c4ccc(Cl)cc4)c4ccc(Cl)cc4)cc23)CC1 [Compound 219] | 1540 nM | > 10000 nM |
| O=C(O)c1ccc(CN2CCC(c3c4cc(C(c5ccc(Cl)cc5)c5ccc(Cl)cc5)ccc4nn3C3CC3)CC2)s1 [Compound 242, 5-((4-(5-(bis(4-chlorophenyl)methyl)-2-cyclopropyl-2H-indazol-3-yl)piperidin-1-yl)methyl)thiophene-2-carboxylic acid] | 16 nM | > 10000 nM |
| O=C(O)c1ccc(S(=O)(=O)N2CCC(c3n[nH]c4ccc(C(c5ccc(Cl)cc5)c5ccc(Cl)cc5)cc34)C2)o1 (stereo not shown) [Compound 270] | 9600 nM | > 10000 nM |
